# Reference: PMC10223987 (Viruses, 2023)
# Structures can show the parent of a compound that is named as a salt. Where two headings read alike, the source gives them in different places.
# Assays:
# TMPRSS2 = TMPRSS2 (Homo sapiens, UniProt O15393); test: TMPRSS2 enzyme inhibition assay (fluorescence-quenched peptide substrate); format: biochemical; settings: enzymatic assay
# [1] = tested on: ACE2/TMPRSS2-dependant SARS-CoV-2 S protein-mediated membrane fusion; test: microbe, parasite or virus in culture; format: cell-based
# [2] = tested on: DSP1-7 and DSP8-11 co-expressing 293FT cells; test: cells; format: cell-based; settings: TMPRSS2-independent / DSP reassociation control; read-out: CoTF Assay IC50
# SARS-CoV-2 pseudovirus = test: microbe, parasite or virus in culture; format: cell-based; settings: Severe acute respiratory syndrome-related coronavirus; for inhibition at 100 µM: VeroE6/TMPRSS2, read-out: SARS-CoV-2 Pseudovirus % Inhibition; for IC50: VeroE6/TMPRSS2, read-out: SARS-CoV-2 Pseudovirus IC50
# VeroE6-TMPRSS2 cells = test: Cell toxicity assay (Celltiter-Glo); format: cell-based; settings: 24 h, read-out: Cell Viability Inhibition IC50
# thrombin = thrombin (Homo sapiens, UniProt P00734); test: Thrombin enzyme inhibition assay; format: biochemical
# factor Xa = factor Xa (Homo sapiens, UniProt P00742); test: Factor Xa enzyme inhibition assay; format: biochemical
# [3] = cited from earlier work
# [4] = Severe acute respiratory syndrome coronavirus 2, read-out: S2TA Assay IC50
# Sequence of TMPRSS2 (O15393 whole entry, the tested form may be a part): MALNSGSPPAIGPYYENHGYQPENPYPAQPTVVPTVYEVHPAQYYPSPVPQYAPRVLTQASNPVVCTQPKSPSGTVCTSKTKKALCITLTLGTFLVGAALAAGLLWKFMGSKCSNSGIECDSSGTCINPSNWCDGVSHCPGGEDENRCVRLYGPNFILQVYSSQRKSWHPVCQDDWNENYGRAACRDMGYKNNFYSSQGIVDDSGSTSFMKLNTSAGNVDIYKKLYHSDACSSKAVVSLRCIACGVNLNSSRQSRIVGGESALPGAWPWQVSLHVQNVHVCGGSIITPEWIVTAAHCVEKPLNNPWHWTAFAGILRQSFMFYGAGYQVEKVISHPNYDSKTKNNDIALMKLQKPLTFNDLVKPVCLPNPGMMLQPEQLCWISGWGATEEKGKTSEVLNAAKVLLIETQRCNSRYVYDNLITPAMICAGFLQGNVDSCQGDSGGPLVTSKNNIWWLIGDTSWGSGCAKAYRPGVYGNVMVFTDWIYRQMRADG
# Sequence of factor Xa (P00742 235-488 limits assumed): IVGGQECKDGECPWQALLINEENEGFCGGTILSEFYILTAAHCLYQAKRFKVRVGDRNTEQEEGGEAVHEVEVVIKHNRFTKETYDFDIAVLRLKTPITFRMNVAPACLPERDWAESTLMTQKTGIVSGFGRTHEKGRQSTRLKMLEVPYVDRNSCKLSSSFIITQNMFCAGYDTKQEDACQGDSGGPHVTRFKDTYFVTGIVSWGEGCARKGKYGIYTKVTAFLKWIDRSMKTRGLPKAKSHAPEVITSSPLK
# Sequence of factor Xa (P00742 41-179 partner limits assumed): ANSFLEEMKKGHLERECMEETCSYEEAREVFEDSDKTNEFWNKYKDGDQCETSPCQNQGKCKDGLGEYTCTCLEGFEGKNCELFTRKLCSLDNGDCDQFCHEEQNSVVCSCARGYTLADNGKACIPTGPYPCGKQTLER
Compound,IC50 (TMPRSS2),"IC50 [1, 4]",IC50 [2],inhibition at 100 µM (SARS-CoV-2 pseudovirus),IC50 (SARS-CoV-2 pseudovirus),IC50 (VeroE6-TMPRSS2 cells),IC50 (thrombin),IC50 (factor Xa),plasma half-life [3],melting point,IC50 ([1]; read-out: S2TA Assay IC50),fold less potential factor Xa inhibitor relative to pentamidine (factor Xa; relative to pentamidine)
CC(C)NC(=N)c1ccc2nc(-c3cccc(-c4nc5ccc(C(=N)NC(C)C)cc5[nH]4)n3)[nH]c2c1 [Compound 11],> 10 µM,> 100 µM,> 100 µM,27%,> 100 µM,> 100 µM,> 1 µM,> 1 µM,,,,
CN(C)C(=O)COC(=O)Cc1ccc(OC(=O)c2ccc(NC(=N)N)cc2)cc1 [camostat],,,,,,,,,23.1 min,,,
N=C(N)c1ccc2nc(-c3cccc(-c4nc5ccc(C(=N)N)cc5[nH]4)n3)[nH]c2c1 (as salt: HCl) [Compound 10],,,,,,,,,,> 300 °C,,
CC(C)NC(=N)c1ccc2nc(-c3ccc(-c4cccc(-c5ccc(-c6nc7ccc(C(=N)NC(C)C)cc7[nH]6)cc5)n4)cc3)[nH]c2c1 [Compound 14],> 100 µM,16.9 µM,31 µM,77.4%,83.7 µM,> 100 µM,2.25 µM,> 10 µM,,,10.9 µM,
N=C(N)c1ccc(-c2ccc(-c3ccc(C(=N)N)cc3)o2)cc1 [Compound 7],82.7 µM,> 100 µM,> 100 µM,2.66%,> 100 µM,> 100 µM,79.1 µM,30.9 µM,,,,5 fold
N=C(N)c1ccc2nc(-c3cccc(-c4nc5ccc(C(=N)N)cc5[nH]4)c3)[nH]c2c1 [Compound 12],4.89 µM,> 100 µM,> 100 µM,17.1%,> 100 µM,> 100 µM,0.862 µM,34.1 µM,,,,
"N=C(N)c1ccc2cc(OC(=O)c3ccc(N=C(N)N)cc3)ccc2c1 [Nafamostat, nafamostat, reference compound]",,,,,,,0.0341 µM,1.74 µM,less than 1 min,,,
N=C(N)c1ccc2nc(-c3cccc(-c4nc5ccc(C(=N)N)cc5[nH]4)n3)[nH]c2c1 [Compound 10],,,37.8 µM,,,,0.921 µM,5.93 µM,,,,
N=C(N)c1ccc2nc(-c3ccc(-c4cccc(-c5ccc(-c6nc7ccc(C(=N)N)cc7[nH]6)cc5)n4)cc3)[nH]c2c1 [Compound 13],72.4 µM,13.7 µM,37 µM,20.5%,> 100 µM,> 100 µM,0.929 µM,4.89 µM,,,,
"N=C(N)c1ccc(OCCCCCOc2ccc(C(=N)N)cc2)cc1 [Pentamidine, pentamidine, reference compound]",3.98 µM,32.3 µM,> 100 µM,69.5%,45 µM,> 100 µM,1.51 µM,6.22 µM,,,,
